Values joined by “and” are separate entries in the source; they are usually repeats but may differ in a detail not shown here. Equal entries are not always repeated.
How the values were obtained:
[1] = tested on: Krebs-2 ascitic carcinoma; experiment: Antitumor effect in the Krebs-2 ascitic carcinoma model; assay type: in vivo, mice; details: for average ascites weight: C57BL mice with Krebs-2, single dose on day 4; for average ascites weight / Average number of tumor cells in ascites: mean ± SD; for Ascites weight / Total number of tumor cells / Tumor cell concentration: individual animals; for Ascites weight / Total number of tumor cells / Tumor cell concentration / Average number of tumor cells in ascites: mice with Krebs-2
Excerpt: The Krebs-2 cancer cell line was obtained from the cell depository of the Institute of Cytology and Genetics SB RAS (Novosibirsk, Russia), and is maintained in mice as a transplanted tumor. Krebs-2 carcinoma is nonspecific to the different genetic constitutions of mice and is weakly immunogenic for mice of all strains. The biological source of Krebs-2 is the epithelial cells of the abdominal wall of the mouse. With intraperitoneal transplantation of tumor cells, an ascitic form is formed.
The effect of the drugs was assessed by the weight of ascites and the number of tumor cells in it.
Strain-nonspecific Krebs-2 ascitic carcinoma was grafted to C57BL mice. Tumor cells were suspended in 0.9% NaCl prior to grafting and injected intraperitoneally (2 million cells per mouse, in 0.2 mL). An ascitic tumor develops after intraperitoneal inoculation, has low immunogenicity, and produces no metastasis during the experiment at the used dose of tumor cells.
The mice were also divided into groups of 6–7 individuals. Treatment was carried out once on the 4th day after tumor transplantation: • - Group 1—Intact control—mice of this group were inoculated with a tumor, receiving 0.2 mL of saline intraperitoneally; • - Group 2—DMSO-Tween-80—mice were injected once intragastrically with a probe 200 μL of a solution containing saline, Tween-80 (10%), and DMSO (15%); • - Group 3—DMSO-Tween-80—mice were injected once intraperitoneally with a solvent for 7; • - Group 4—Tpc (aqueous solution)—mice were injected once intraperitoneally with 200 µL of Tpc at a single dose of 1 mg/kg; • - Group 5—Tpc + 7 i/g—mice received Tpc once as described for groups 3 and 7 in the form of 200 µL of suspension in Tween-80-DMSO once intragastrically at a dose of 50 mg/kg; • - Group 6—Tpc + 7 i/p—mice were injected with topotecan once as described for groups 3 and 7 in the form of 200 µL of suspension Tween-80-DMSO once intraperitoneally at a dose of 50 mg/kg; • - Group 7—7 i/g—mice were injected with 7 as described for group 5; • - Group 8—7 i/p—mice were injected with 7 as described for group 6.
The ascitic tumor weight and the cancer cell concentration in the ascitic fluid (as counted with a Goryaev chamber) were evaluated at the end of the experiment to estimate the effects of the substances. To prepare the samples for cell counting with a Goryaev chamber, 10 μL of the ascitic fluid was combined with 400 μL of saline (a 40-fold dilution). Cells were counted in five large squares, each divided into 16 small squares (80 squares in total) at a low magnification.

[2] = tested on: Lewis lung carcinoma (LLC); experiment: Antitumor and antimetastatic effect in the Lewis lung carcinoma model; assay type: in vivo, mice; details: for average number of metastases in the lungs / average primary node (tumor) weight / tumor growth inhibition (TGI): C57BL mice with LLC; for average number of metastases in the lungs / average primary node (tumor) weight: day 18, mean ± SD; for average primary node (tumor) weight: single dose; for tumor growth inhibition (TGI): vs intact control; for number of metastases in the lungs / tumor weight: individual animals; for effect on the number of metastases in the lungs (in words): monotherapy, Tpc 1 mg/kg i/p, 7 50 mg/kg i/p or i/g
Excerpt: Compound 7 is a hybrid of two compounds: leaders in their subclasses of usnic acid derivatives 1 and 4 [28, 32]. We studied the ability of compound 7 to sensitize the effect of topotecan on murine Lewis lung carcinoma (LLC) (Tpc + 7, Figure 3). The LLC cell line was maintained as a transplantable strain in mice and was provided by the cell depository of the Institute of Cytology and Genetics SB RAS (Novosibirsk, Russia). […] Subcutaneous transplantation leads to the development of a primary node at the injection site and the appearance of metastases in the lungs on days 17–21 [47]. The size of the primary tumor was determined as the difference in the weight of the healthy limb and the limb with the tumor after the mice were removed from the experiment on 18th day after LLC transplantation.
Female C57BL mice with a body weight of ~19–21 g were used in the study. Mice were housed in plastic cages with a wood chip bedding and had free access to water and food. Lewis lung carcinoma (LLC) and Krebs-2 ascites were used as experimental tumor models. The transplantable tumors were obtained from the cell bank of the Institute of Cytology and Genetics (Novosibirsk, Russia). The LLC mouse model is the most common model of lung cancer; LLC cells remain tumorigenic and capable of metastasis into the lung in C57BL mice. Tumor tissue was minced and resuspended in 0.9% NaCl prior to grafting. LLC was injected into the right thigh of mice at 800,000 cells in 0.2 mL per mouse.
Previously, we divided the animals into 6 groups of 6–7 individuals in each, the treatment was carried out once 7 days after tumor transplantation: • - Group 1—Intact control—mice of this group were inoculated with a tumor, receiving 0.2 mL of saline intraperitoneally; • - Group 2—DMSO-Tween-80—mice were injected once intragastrically with a probe 200 μL of a solution containing saline, Tween-80 (10%) and DMSO (15%), a solvent for 7; • - Group 3—Tpc (aqueous solution)—mice were injected once intraperitoneally with 200 µL of Tpc at a single dose of 1 mg/kg; • - Group 4—Tpc + 7 i/g—mice received Tpc once as described for group 3 and 7 in the form of 200 µL of suspension (Tween-80 (10%) and DMSO (15%) in saline) once intragastrically at a dose of 50 mg/kg; • - Group 5—7 i/g—mice were injected with 7 as described for group 4; • - Group 6—Tpc + 7 i/p—mice were injected with topotecan once as described for groups 3 and 7 in the form of 200 µL of suspension (Tween-80 (10%) and DMSO (15%) in saline) once intraperitoneally at a dose of 50 mg/kg; • - Group 7—7 i/p—mice were injected with 7 as for group 6.
The substances were administered as a single injection in a volume of 0.2 mL on day 13 after tumor grafting. The anticancer effect was evaluated by the primary tumor growth and the number of metastases in the lungs of all mice. Metastases were counted after fixation in 10% formalin under an MBI-3 microscope (LOMO, Saint Petersburg, Soviet Union) at a threefold magnification.

[3] = Leukocyte and erythrocyte counts in peripheral blood of mice with Krebs-2 carcinoma; assay type: in vivo
Description: We also counted leukocytes and erythrocytes in mice with Krebs-2 carcinoma. […] An increase in white blood cell count in the peripheral blood is associated with the inflammatory process that develops during tumor formation and growth. […] It should be noted that topotecan at the dose of 1 mg/kg was not hemotoxic and partly normalized the concentrations of leukocytes and erythrocytes, apparently due to its antitumor effect. Treatment of mice with only compound 7, regardless of the route of administration, reduced the number of leukocytes somewhat more effectively than the drugs listed above, but the decrease was significant only in comparison with the control without treatment.
White and red blood cell counts were determined using a Goryaev chamber using a BIOSCOP-1 microscope (LOMO-MA, St. Petersburg, Russia).

[4] = Tpc 1 mg/kg i/p and/or 7 50 mg/kg i/p
[5] = mice with LLC, Tpc 1 mg/kg i/p and/or 7 50 mg/kg i/p
[6] = 7 50 mg/kg i/g, alone or with Tpc 1 mg/kg i/p
[7] = mice with LLC, 7 50 mg/kg i/g, alone or with Tpc 1 mg/kg i/p

Row | SMILES | average ascites weight [1, 4] | Ascites weight [1, 4] | Total number of tumor cells [1, 4] | Tumor cell concentration [1, 4] | Average number of tumor cells in ascites [1, 4] | average number of metastases in the lungs [2, 4] | average primary node (tumor) weight [2, 4] | tumor growth inhibition (TGI) [2, 4] [%] | number of metastases in the lungs [2, 5] | tumor weight [2, 5] | effect on the number of metastases in the lungs (in words) ([2]; mice with LLC) | Concentration of erythrocytes in peripheral blood [3, 4] [million/µL] | Concentration of leukocytes in peripheral blood [3, 4] [thousand/µL] | further results
1 | CC[C@@]1(O)C(=O)OCc2c1cc1n(c2=O)Cc2cc3c(CN(C)C)c(O)ccc3nc2-1 [Tpc, topotecan] | 3±0,9 g | 2.3 g and 5.6 g and 3.5 g and 2 g and 2.9 g and 2.4 g | 218.5 million and 459.2 million and 266 million and 182 million and 188.5 million and 120 million and 148.8 million | 95 million/ml and 82 million/ml and 76 million/ml and 91 million/ml and 65 million/ml and 50 million/ml and 62 million/ml | 226,1±78 million | 11,8±6,1 | 2,8±0,5 g | 36.4 | 24 and 9 and 5 | 2.9 g and 3 g and 3.4 g and 2.7 g | virtually no effect | 7.6 ± 0.4 | 11.2 ± 0.7 | hemotoxicity (in words) ([3]; dose of 1 mg/kg): not hemotoxic
2 | C/C(NCCCc1cc(C(C)(C)C)c(O)c(C(C)(C)C)c1)=C1\C(=O)C=C2Oc3c(-c4csc(N/N=C/c5ccc(Br)cc5)n4)c(O)c(C)c(O)c3[C@@]2(C)C1=O [Compound 7, (4E)-10-{2-[(E)-2-[(4-bromophenyl)methylidene]hydrazin-1-yl]-1,3-thiazole-4-yl}-4-(1-{[3-(3,5-di-tret-butyl-4-hydroxyhenyl)propyl]amino}ethylidene)-11,13-dihydroxy-2,12-dimethyl-8-oxatricyclo [7.4.0.02,7]trideca-1(13),6,9,11-tetraen-3,5-dione] | 4,1±1,4 g | 3.1 g and 2.4 g and 4.5 g and 5.5 g and 2.1 g and 5.2 g and 6.2 g | 204.6 million and 105.6 million and 234 million and 165 million and 44.1 million and 530.4 million and 576.6 million | 66 million/ml and 44 million/ml and 52 million/ml and 30 million/ml and 21 million/ml and 102 million/ml and 93 million/ml | 265,8±164,4 million | 15,5±5,5 | 3,9±0,7 g | 11.4 | 10 and 21 | 3.4 g and 4.4 g | no effect | 7 ± 0.6 | 10.1 ± 0.9 | average ascites weight [1, 6]: 5±0,5 g; Ascites weight [1, 6]: 4.6 g and 6.2 g and 5.1 g and 4.5 g; Total number of tumor cells [1, 6]: 372.6 million and 403 million and 230 million and 209.1 million and 162 million; Tumor cell concentration [1, 6]: 81 million/ml and 65 million/ml and 50 million/ml and 41 million/ml and 36 million/ml; Average number of tumor cells in ascites [1, 6]: 275,3±90 million; average primary node (tumor) weight [2, 6]: 4,2±0,9 g; tumor growth inhibition (TGI) [2, 6]: 4.5%; number of metastases in the lungs [2, 7]: 18 and 4 and 21 and 0; tumor weight [2, 7]: 2.9 g and 4.5 g and 4.8 g and 3.7 g and 5.3 g; effect on the growth of the primary node (in words) ([2]; mice with LLC, mono mode): no effect; Concentration of erythrocytes in peripheral blood [3, 6]: 7.2 ± 0.6 million/µL; Concentration of leukocytes in peripheral blood [3, 6]: 10.7 ± 0.8 thousand/µL
